This note sets out measurements from US8637679B2, “Process for the isolation of organic compounds useful for the treatment of cancer” (Council of Scientific and Industrial Research, priority 2011, dated 2014).

Values joined by “and” are separate entries in the source; they are usually repeats but may differ in a detail not shown here. Equal entries are not always repeated. “Also recorded” adds a separate entry of the source. Where two headings read alike, the source gives them in different places.

For one data set, the target named is Hsp90β (Homo sapiens, UniProt P08238). In words: γ-ATP sepharose binding assay, Hsp90β. To be noted: mahanine at 50 and 100 μM. Here is the method: (§1) 5 μg of purified Hsp90α and Hsp90β were pre-incubated separately on ice with 200 μL incubation buffer (10 mM Tris-Hcl, 50 mM KCl, 5 mM MgCl2, 2 mM DTT, 20 mM Na2MoO4, 0.01% NP40, pH 7.5) containing mahanine or 17-AAG and incubated for 30 mins on ice. After the incubation, 25 μL pre-equilibrated γ-phosphate ATP sepharose added and again incubated at 37° C. with frequent agitation.
(§2) Sepharose subsequently washed and analyzed by SDS-PAGE. Then the blot was probed with anti Hsp90 antibody and developed by ECL.

A further data set deals with Hsp90α (Homo sapiens, UniProt P07900). In words: γ-ATP sepharose binding assay, Hsp90α. The note with it: mahanine at 50 and 100 μM. Here is the method:
as §1, §2

Data set [1] deals with HeLa. The data set can be described thus: 7-AAD flow cytometric apoptosis, HeLa. It is filed as cell-based, human. For orientation: Flow cytometry measures light scatter and fluorescence of single cells or particles in a stream.
Method: (§5) U87MG, LN229, HeLa, SiHa and ME180 (1×10^6 cells) cells were cultured in 6-well plates in presence or absence of Mahanine (25 μM) for 24 hrs. Cells were washed in PBS, incubated with 7-Aminoactinomycin D (7-AAD) at 4° C. for 20 min and processed. Data acquisition was done on a FACSCalibur flow cytometer (BD) at excitation wavelength at 488 nm and emission wavelength at 647 nm and analyzed with CellQuestPro software.
Another data set deals with Panc10.05. In words: MTT cell viability assay, Panc10.05. In kind it is cell-based, human. The note with it: Panc10.05, 48 hrs. Here is the method:
(§3) Human cervical cancer cell lines (HeLa, ME-180 and SiHa), brain tumor cell lines (U87MG, U373MG, U87MG EGFRvIII, T98G, A172 and LN229), lymphoid leukemia (MOLT-3, MOLT-4, REH and CEMC-7), myloid leukemia (K562), pancreatic cancer (MIAPaCa-2, AsPC-1, Panc-1 and Panc 10.05), lung cancer (A549) and colon cancer (HCT116 and SW480) cell lines from American Type Culture Collection, Manassas, Va., USA were grown in IMDM or RPMI (cell specific) Medium supplemented with 10% fetal bovine serum and 1% antibiotic-antimycotic. Cells were cultured in 37° C. in an atmosphere of 5% CO2.
(§4) Viability of cancer cell lines after treatment as at the indicated times was determined by MTT assay. Briefly, 10,000 cells were plated in triplicate in 96 well plates and incubated for 24 and 48 hours in complete media in presence of varying dose of mahanine (0-50 μM). 100 ug MTT was added in each well. Incubate the plate for 1-4 hours at 37° C. and humidified 5% CO2 atmosphere. Absorbance was recorded at 550 nm with 96 well plate readers.
On the technique in general: Formazan colour is commonly taken as a measure of viable cells.

Another data set has as its system T98G. In words: MTT cell viability assay, T98G. It is filed as cell-based, human. To be noted: 48 hrs. Here is the method:
as §3, §4

The nature of data set [2]: In vivo bioavailability after oral feeding. Further details: species or system Balb/c mice. To be noted: mouse, in vivo, po. Here is the method:
EtOAc extract of Murraya koenigii was orally feeded to normal healthy Balb/c (100 mg/kg body weight) and blood was collected from retro orbital plexus after 30 min interval by glass capillary. Control blood was collected from the mice before the […] of extract. The Institutional Animal Ethical Committee had approved the study. Blood serum was isolated and the serum protein was separated by centrifugation in ice-cold acetone. Supernatant was evaporated to dryness and residual part was dissolved in minimum volume of MeOH and injected into the HPLC column.

The next data set has as its system AsPC1. In words: MTT cell viability assay, AsPC1. In kind it is cell-based, human. The note with it: AsPC1, 48 hrs. As for the experimental part: as §3, §4
The next data set deals with REH. The data set can be described thus: MTT cell viability assay, REH. It is filed as cell-based, human. The note with it: 48 hrs. Here is the method:
as §3, §4

The next data set relates to A172. In words: MTT cell viability assay, A172. The note with it: A172, 48 hrs. In kind it is cell-based, human. As for the experimental part:
as §3, §4

The subject of another data set is SW480. The data set can be described thus: MTT cell viability assay, SW480. In kind it is cell-based, human. The note with it: SW480, 48 hrs. Here is the method: as §3, §4
A further data set relates to MIAPaCa-2. The data set can be described thus: MTT cell viability assay, MIAPaCa-2. In kind it is cell-based, human. To be noted: MIAPaCa-2, 48 hrs. Here is the method: as §3, §4
For a further data set, the system named is LN229. In words: MTT cell viability assay, LN229. To be noted: LN229, 48 hrs. In kind it is cell-based, human. Here is the method:
as §3, §4

The next data set has as its system HCT116. The data set can be described thus: MTT cell viability assay, HCT116. The note with it: HCT116, 48 hrs. In kind it is cell-based, human. As for the experimental part:
as §3, §4

The subject of another data set is U87MG. The data set can be described thus: MTT cell viability assay, U87MG. It is filed as cell-based, human. The note with it: 48 hrs. Here is the method:
as §3, §4

The subject of another data set is Molt-4. In words: MTT cell viability assay, Molt-4. It is filed as cell-based, human. To be noted: Molt-4, 48 hrs. Here is the method:
as §3, §4

A further data set concerns U373MG. The data set can be described thus: MTT cell viability assay, U373MG. In kind it is cell-based, human. The note with it: 48 hrs. Here is the method: as §3, §4
In another data set the test system is K562. In words: MTT cell viability assay, K562. To be noted: K562, 48 hrs. It is filed as cell-based, human. As for the experimental part:
as §3, §4

For a further data set, the system named is CEM C7. The data set can be described thus: MTT cell viability assay, CEM C7. It is filed as cell-based, human. To be noted: CEM C7, 48 hrs. As for the experimental part:
as §3, §4

A further data set relates to NCIH23. The data set can be described thus: MTT cell viability assay, NCIH23. It is filed as cell-based, human. To be noted: NCIH23, 48 hrs. As for the experimental part:
as §4

Data set [3] deals with glioma cells (U87MG, U373MG, LN229, A172 and T98G). In words: MTT assay, panel of glioma cell lines. It is filed as cell-based, human. To be noted: range over U87MG, 48 hr, read-out: IC50 values against different glioma cell lines. Here is the method: as §3, §4
The subject of the next data set is Molt-3. In words: MTT cell viability assay, Molt-3. In kind it is cell-based, human. To be noted: Molt-3, 48 hrs. As for the experimental part:
as §3, §4

The next data set deals with A549. In words: MTT cell viability assay, A549. In kind it is cell-based, human. The note with it: A549, 48 hrs. Here is the method:
as §3, §4

The next data set deals with Panc1. The data set can be described thus: MTT cell viability assay, Panc1. The note with it: Panc1, 48 hrs. In kind it is cell-based, human. As for the experimental part: as §3, §4
The test system of another data set is cancer cell lines. In words: MTT assay, pooled cancer cell lines of several cancer types. It is filed as cell-based, human. The note with it: 48 hr. As for the experimental part: as §3, §4
The test system of a further data set is Vero. In words: MTT cell viability assay, Vero normal cells. In kind it is cell-based, African monkey. To be noted: Vero normal cell line, 48 hrs.
Data set [4] relates to HeLa. In words: MTT cell viability assay, HeLa. It is filed as cell-based, human. The note with it: 48 hrs. As for the experimental part:
as §3, §4

The test system of data set [5] is glioma (T98G) and cervical (HeLa) cancer cells. In words: Comparative cytotoxicity of mahanine and analogs by MTT. It is filed as cell-based, human. The note with it: MTT. As for the experimental part: as §3, §4
Another data set relates to ME180. In words: 7-AAD flow cytometric apoptosis, ME180. It is filed as cell-based, human. To be noted: ME180, paclitaxel 10 μM alone.

Chain of Hsp90β (P08238 whole entry): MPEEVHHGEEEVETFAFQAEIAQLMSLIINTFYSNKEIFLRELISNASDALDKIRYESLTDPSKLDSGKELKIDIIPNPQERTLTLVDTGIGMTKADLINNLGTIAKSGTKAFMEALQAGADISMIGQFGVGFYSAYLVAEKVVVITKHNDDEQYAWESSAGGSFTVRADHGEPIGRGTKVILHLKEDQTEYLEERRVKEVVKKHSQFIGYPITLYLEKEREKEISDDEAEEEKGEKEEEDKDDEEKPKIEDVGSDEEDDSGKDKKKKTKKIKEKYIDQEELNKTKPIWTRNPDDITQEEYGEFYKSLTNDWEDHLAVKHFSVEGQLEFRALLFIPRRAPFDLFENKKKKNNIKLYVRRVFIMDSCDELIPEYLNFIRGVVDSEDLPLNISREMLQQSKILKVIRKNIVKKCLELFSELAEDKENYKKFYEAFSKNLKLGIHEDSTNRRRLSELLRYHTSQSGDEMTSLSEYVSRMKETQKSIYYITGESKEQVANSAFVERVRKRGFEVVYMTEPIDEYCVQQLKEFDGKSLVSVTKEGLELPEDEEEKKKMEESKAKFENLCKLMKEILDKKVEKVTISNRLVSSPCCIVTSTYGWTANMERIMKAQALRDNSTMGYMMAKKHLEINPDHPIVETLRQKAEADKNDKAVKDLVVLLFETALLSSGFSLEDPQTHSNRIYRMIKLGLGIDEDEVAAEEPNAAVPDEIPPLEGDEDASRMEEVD
Method for ME180: as §5

In the case of “17-allylamino, 17-demethoxygeldanamycin [17AAG, reference compound]”, the “effect on ATP binding to purified Hsp90” value on Hsp90β and at Hsp90α was “easily hindered the ATP binding” throughout.

In the case of `N.N.[Cl][Pt][Cl]` [Cisplatin, cisplatin], the “apoptosis (7-AAD)” value in the data set with HeLa [1] (cisplatin 40 μM alone) is recorded as about 7%.

`CC(C)=CCCC1(C)C=Cc2c(c(C)cc3c2[nH]c2ccccc23)O1` (stereo not shown) [Mahanimbine, mahanimbine]: the half-inhibitory concentration (IC50) in the data set on Panc10.05 turned out to be 38.2 ± 0.1 µM; with T98G, 43.6 ± 0.2 µM; with AsPC1 it was 31.75 ± 0.2 µM; in the data set on REH, 24.3 ± 0.7 µM; with A172, 38.4 ± 0.8 µM; in the data set with SW480, 36.4 ± 0.5 µM. For the same compound, the 50% inhibitory concentration (IC50) in the data set with MIAPaCa-2 was 35.2 ± 0.1 µM; with LN229, 46.3 ± 0.1 µM; in the data set on HCT116, 33.5 ± 0.3 µM; with U87MG, 42.6 ± 0.4 µM; with Molt-4, 28 ± 0.2 µM; in the data set with U373MG it was 41.2 ± 0.25 µM. Also, the IC50 in the data set with K562 was 25.1 ± 0.1 µM; in the data set on CEM C7 it was 27.4 ± 0.3 µM; in the data set on NCIH23, 31.8 ± 0.2 µM; in data set [3], 38 to 47 µM; in the data set on Molt-3, 22.6 ± 0.6 µM; in the data set with A549, 37 ± 0.1 µM. Besides, the IC50 in the data set on Panc1 is 32.8 ± 0.1 µM; with cancer cell lines (range over glioma and cervical cancer cell lines, read-out: IC50, glioma and cervical cancer cells) it was 10 to 20 µM; in the data set with cancer cell lines (range over leukemia, glioma, cervical, pancreatic, colon and lung cancer lines, MTT, read-out: IC50, cell lines of different cancer types), 20 to 45 µM and 30 to 50 µM; with Vero, over 100 µM; in the data set on HeLa [4], 34.8 ± 0.1 µM; in the data set on HeLa [4] (listed as Mahanimbin), 36 µM. For the same compound, the “secondary metabolites in blood (mass spectroscopy)” value in data set [2] is given as “no production of secondary metabolites”. Also, the “time to appearance in blood circulation after oral administration” value in data set [2] is at most 30 min.

Take `CC(C)=CCCC1(C)C=Cc2c(c(C)cc3c4ccccc4n(C)c23)O1` (stereo not shown) [N-methylated mahanimbine]: the “cytotoxicity (activity in words)” value in data set [5] is “inactive; also recorded: more or less inactive”.

For `COc1ccc2c(c1)[nH]c1c3c(c(C)cc12)OC(C)(CCC=C(C)C)C=C3` (stereo not shown) [O-methylated mahanine], the “cytotoxicity (activity in words)” value in data set [5] is “inactive; also recorded: more or less inactive”.

Take `CC(=O)O[C@H]1C(=O)[C@@]2(C)[C@H]([C@H](OC(=O)c3ccccc3)[C@]3(O)C[C@H](OC(=O)[C@H](O)[C@@H](NC(=O)c4ccccc4)c4ccccc4)C(C)=C1C3(C)C)[C@]1(OC(C)=O)CO[C@@H]1C[C@@H]2O` [Paclitaxel, paclitaxel, reference compound]: the “apoptosis (7-AAD)” value turned out to be 18.21% in the data set on ME180 and 16.19% in the data set on HeLa [1] (paclitaxel 10 μM alone).

C20-C21 epoxy mahanine returned an IC50 in the data set with REH of 18.4 ± 1.1 µM.

Usually IC50 stands for the concentration needed to halve the response being measured.
